Reference: PMC4608773, “Elisidepsin Interacts Directly with Glycosylceramides in the Plasma Membrane of Tumor Cells to Induce Necrotic Cell Death” (PLoS ONE, 2015)
Like-named read-outs stand apart in the source and are kept apart here.

Legend:
[1] = system: HCT-116-Irv cells (elisidepsin-resistant subline); test: cells; conditions: for IC50: read-out: HCT-116-Irv (IC50), cell growth half-maximal inhibitory concentration; for RR (resistance ratio): fold change between IC50 values from HCT-116-Irv and HCT-116: negative values where HCT-116-Irv is the more sensitive line
Protocol: B16 and GM95 cells were maintained in DMEM with the same supplements and conditions.
(§1) Cells were seeded in 96-well microtiter plates and maintained at 37°C and 5% CO2 in drug-free medium before treatment with vehicle alone or elisidepsin at the concentrations and times indicated in the text. For cell survival quantification, a colorimetric assay using SRB was used. Briefly, after treatment, cells were washed twice with phosphate buffered saline (PBS), fixed for 25 min in 1% glutaraldehyde solution, rinsed twice with PBS, stained in 0.4% SRB-1% acetic acid solution for 30 min, rinsed several times with 1% acetic acid solution, and air-dried. […] Results are expressed as percentage of control cell survival and represent the mean of at least three independent experiments. IC50, half-maximal inhibitory concentration, was used as a reference value.

HCT-116 cells = test: cells
Protocol: as §1

[2] = system: GM95 cells (UGCG-deficient B16 mutant); test: Cell viability assay (SRB colorimetric); assay type: cell-based, mouse; conditions: for IC50: read-out: GM95 (IC50), cell growth half-maximal inhibitory concentration; for RR: fold change between IC50 values from GM95 and B16: negative values where GM95 is the more sensitive line
Protocol: as §1

B16 cells = test: Cell viability assay (SRB colorimetric); assay type: cell-based, mouse
Protocol: as §1

Elisidepsin = test: FRET or BRET; two-photon FLIM-FRET, phasor analysis, on live HCT-116 cells in Tyrode-glucose buffer; mix of donor Irv-OG488 200 nM, acceptor Irv-A555 800 nM and elisidepsin 3 μM added to the cells; assemblies seen in the plasma membrane
[3] = Homo sapiens, HCT-116, read-out: HCT-116 (IC50), cell growth half-maximal inhibitory concentration
[4] = Mus musculus, B16, read-out: B16 (IC50), cell growth half-maximal inhibitory concentration
[5] = SRB assay, 96-well, mean of three different experiments, exposure time not given
[6] = SRB assay, mean of three different experiments
[7] = SRB assay, mean of three different experiments, read-out: B16 (IC50), cell growth half-maximal inhibitory concentration
[8] = read-out: HCT-116 (IC50), cell growth half-maximal inhibitory concentration, SRB assay, 96-well, mean of three different experiments, exposure time not given

Compound | IC50 ([1]; Homo sapiens) [nM] | RR (resistance ratio): fold change between IC50 values from HCT-116-Irv and HCT-116 [1] | IC50 (HCT-116 cells; [3]) [nM] | RR: fold change between IC50 values from GM95 and B16 [2] | other results
CCCCCCCCCCCCCCCCCCOCC(COP(=O)([O-])OCC[N+](C)(C)C)OC (stereo not shown) [Edelfosine] | 29000 | 1.0 | 29000 |  | 
O=c1[nH]cc(F)c(=O)[nH]1 [5-FU, 5-fluorouracil] | 11000 | 2.8 | 4000 |  | 
Nc1ccn([C@@H]2O[C@H](CO)[C@@H](O)C2(F)F)c(=O)n1 [Gemcitabine] | 0.67 | 1.1 | 0.63 | 1.4 | IC50 ([2]; Mus musculus, SRB assay, mean of three different experiments): 8.1 nM; IC50 (B16 cells; Mus musculus, B16, SRB assay, mean of three different experiments, read-out: B16 (IC50), cell growth half-maximal inhibitory concentration): 5.6 nM
CC(=O)O[C@H]1C(=O)[C@@]2(C)[C@H]([C@H](OC(=O)c3ccccc3)[C@]3(O)C[C@H](OC(=O)[C@H](O)[C@@H](NC(=O)c4ccccc4)c4ccccc4)C(C)=C1C3(C)C)[C@]1(OC(C)=O)CO[C@@H]1C[C@@H]2O [Paclitaxel] | 8.3 | 1.2 | 6.9 | 2.2 | IC50 ([2]; Mus musculus): 34 nM; IC50 (B16 cells; [4]): 15 nM
C/C(=C\c1csc(C)n1)[C@@H]1C[C@@H]2O[C@]2(C)CCC[C@H](C)[C@H](O)[C@@H](C)C(=O)C(C)(C)[C@@H](O)CC(=O)O1 [Epothilone B] | 3.9 | 1.8 | 2.2 |  | 
CCC1=C[C@@H]2CN(C1)Cc1c([nH]c3ccccc13)[C@@](C(=O)OC)(c1cc3c(cc1OC)N(C)[C@H]1[C@@](O)(C(=O)OC)[C@H](OC(C)=O)[C@]4(CC)C=CCN5CC[C@]31[C@@H]54)C2 [Vinorelbine] | 190 | 1.1 | 160 |  | 
COc1cccc2c1C(=O)c1c(O)c3c(c(O)c1C2=O)C[C@@](O)(C(=O)CO)C[C@@H]3O[C@H]1C[C@H](N)[C@H](O)[C@H](C)O1 [Doxorubicin] | 99 |  | 140 | -1.9 | IC50 ([2]; Mus musculus): 94 nM; IC50 (B16 cells; [4]): 180 nM
Elisidepsin (peptide) |  |  |  |  | FRET efficiency (Elisidepsin): 60%
CC(=O)O[C@@]12CO[C@@H]1C[C@H](O)[C@@]1(C)C(=O)[C@H](O)C3=C(C)[C@@H](OC(=O)[C@H](O)[C@@H](NC(=O)OC(C)(C)C)c4ccccc4)C[C@@](O)([C@@H](OC(=O)c4ccccc4)[C@H]21)C3(C)C [Docetaxel] | 1.8 |  | 2.9 |  | 
N.N.[Cl][Pt][Cl] [Cisplatin] |  | -2.7 |  | -2.0 | IC50 [1, 5]: 3600 nM; IC50 [2, 6]: 9400 nM; IC50 (B16 cells; [7]): 18000 nM; IC50 (HCT-116 cells; [8]): 9800 nM
CO[C@@]12[C@H](COC(N)=O)C3=C(C(=O)C(C)=C(N)C3=O)N1C[C@@H]1N[C@@H]12 [Mitomycin C] | 300 |  | 330 | -2.3 | IC50 ([2]; Mus musculus): 2500 nM; IC50 (B16 cells; [4]): 5700 nM
COc1cc([C@@H]2c3cc4c(cc3[C@@H](O[C@@H]3O[C@@H]5CO[C@@H](C)O[C@H]5[C@H](O)[C@H]3O)[C@H]3COC(=O)[C@H]23)OCO4)cc(OC)c1O [Etoposide] | 960 |  | 1200 |  | 
C[C@@H]1[C@H](O)[C@@H](C)/C=C/C=C/C=C/C=C/C=C/C=C/C=C/[C@H](O[C@@H]2O[C@H](C)[C@@H](O)[C@H](N)[C@@H]2O)C[C@@H]2O[C@](O)(C[C@@H](O)C[C@@H](O)[C@H](O)CC[C@@H](O)C[C@@H](O)CC(=O)O[C@H]1C)C[C@H](O)[C@H]2C(=O)O [Amphotericin B] | 6100 | 1.2 | 5200 |  | 
COc1cc2c(c(OC)c1OC)-c1ccc(OC)c(=O)cc1[C@@H](NC(C)=O)CC2 [Colchicine] | 2.8 |  | 3.9 |  | 
CN(Cc1cnc2nc(N)nc(N)c2n1)c1ccc(C(=O)N[C@@H](CCC(=O)O)C(=O)O)cc1 [Methotrexate] | 77 | 2.1 | 37 | -1.4 | IC50 ([2]; Mus musculus): 370 nM; IC50 (B16 cells; [4]): 500 nM
Syringomycin E |  | -1.4 |  | -1.3 | IC50 [1, 5]: 15000 nM; IC50 [2, 6]: 9000 nM; IC50 (B16 cells; [7]): 11000 nM; IC50 (HCT-116 cells; [8]): 20000 nM
C#Cc1cccc(Nc2ncnc3cc(OCCOC)c(OCCOC)cc23)c1 [Erlotinib] | 16000 |  | 32000 |  | 
CC[C@]1(O)C[C@@H]2CN(CCc3c([nH]c4ccccc34)[C@@](C(=O)OC)(c3cc4c(cc3OC)N(C)[C@H]3[C@@](O)(C(=O)OC)[C@H](OC(C)=O)[C@]5(CC)C=CCN6CC[C@]43[C@@H]65)C2)C1 [Vinblastine] | 0.41 | 1.3 | 0.32 |  | 
